Measured values as given in patent publication US4300557A, “Method for treating intraocular malignancies” (The United States of America as represented by the …, priority 1980, dated 1981).
“And” between values parts separate entries of the source, which are not always exact repeats. Equal entries are not always repeated.

What was measured:
[1] = tested on: Brown-Pearce epithelioma; experiment: In vivo testing in rabbits with intracameral Brown-Pearce epithelioma, clinical results; design: species or system New Zealand female albino rabbits; reduction in tumor growth: dose or concentration left out as unconfirmed; conditions: for Day Tumor Destroyed Whole Eye, Treated Eye: * eye not yet destroyed by day of enucleation
Text: (§1) Preoperative examination of 28 eyes in 14 New Zealand femal albino rabbits weighing 2.0 to 2.5 kg included biomicroscopy, tonotometry, and indirect ophthalmoscopy. All animals had normal eyes. Both eyes of each animal were inoculated intracamerally with Brown-Pearce epithelioma tissue by the technique at 993 of Liu et al., Invest. Ophthalmol Visual Sci., Vol. 17 (1978).
Three days after tumor tissue implantation, a silicone device described in Example 1 was implanted episclerally in each eye. Animals were anesthetized with sodium pentobarbital 24 mg/kg body weight administered intravenously. After routine preparation of the rabbit and the eyes, a pocket beneath the conjunctiva and Tenon's capsule was made in the upper temporal quadrant of the eye. The silicone device was inserted into the pocket but the small tube remained accessible to permit injection of test substance. Two 7-0 silk sutures were applied on both shoulders of the silicone device and on the episcleral tissue at the pars plana to hold the device in position. The conjunctiva was closed with two 7-0 silk sutures. […] 5. The injecting tube was fixed on the upper fornix.
Seven animals (Group 1A) received 3.0 mg of BCNU in 0.15 ml of sesame oil in one eye on the third, sixth, and ninth days after tumor implantation (total dose 9.0 mg). Three animals (Group 1B) received 12.0 mg of BCNU in 0.15 ml of sesame oil on the same schedule (total dose 36.0/mg). […] The fellow eyes served as controls and received diluent only.
(§2) Ocular examinations were made on alternate days during the 20 days following tumor implantation; at that time all eyes were enucleated. The effectiveness of treatment was measured by (1) comparing the extent of tumor growth in the anterior chamber of treated and control eyes, (2) noting the occurrence of distortion and perforation of the globe due to tumor growth, (3) weighing all eyes following enucleation, and (4) comparing the histopathologic changes in the eyes.
Clinical results, tabulated below, indicate the day on which the tumor occupied the anterior chamber and the weight of the enucleated eyes. The first day was the day on which tumor tissue was implanted.

[2] = tested on: Brown-Pearce epithelioma; experiment: Histopathological observations of enucleated rabbit eyes with Brown-Pearce epithelioma; format: in vivo, New Zealand female albino rabbits
Text: as §1
Three days after tumor tissue implantation, a silicone device described in Example 1 was implanted episclerally in each eye. Animals were anesthetized with sodium pentobarbital 24 mg/kg body weight administered intravenously. After routine preparation of the rabbit and the eyes, a pocket beneath the conjunctiva and Tenon's capsule was made in the upper temporal quadrant of the eye. The silicone device was inserted into the pocket but the small tube remained accessible to permit injection of test substance. Two 7-0 silk sutures were applied on both shoulders of the silicone device and on the episcleral tissue at the pars plana to hold the device in position. The conjunctiva was closed with two 7-0 silk sutures. Then 0.15 ml of the BCNU solution or the diluent (control) was injected into the device with a tuberculin syringe and a 30-gauge needle through the tube which was outside the closed conjunctiva as shown in FIG. 5. The injecting tube was fixed on the upper fornix.
Seven animals (Group 1A) received 3.0 mg of BCNU in 0.15 ml of sesame oil in one eye on the third, sixth, and ninth days after tumor implantation (total dose 9.0 mg). Three animals (Group 1B) received 12.0 mg of BCNU in 0.15 ml of sesame oil on the same schedule (total dose 36.0/mg). Four animals (Group II) received 13.0 mg of BCNU in pure ethanol on the third and sixth days after tumor implantation (total dose 26.0 mg). The fellow eyes served as controls and received diluent only.
as §2
The enucleated eyes were fixed in 10% buffered formalin in preparation for histopathological examination. A sagittal section on either side of the optic nerve was made. Pupil-optic nerve sections and the two calottes were processed routinely for histologic evaluation, using hematoxyline and eosin (H&E) stain. The eyes were imbedded in paraffin and cut in sections 6μ thick for light microscopy. Every fifth section was stained. About 50 sections from each eye were examined.

[3] = Group IA: 3.0 mg BCNU in sesame oil, days 3, 6 and 9
[4] = Group IB: 12.0 mg BCNU in sesame oil, days 3, 6 and 9
[5] = Group II: 13.0 mg BCNU in pure ethanol, days 3 and 6

O=NN(CCCl)C(=O)NCCCl [BCNU, 1,3-bis-(2-chloroethyl)-1-nitrosourea]
reduction of tumor growth ([1]; 3.0 or 12.0 mg BCNU in 0.15 ml sesame oil, days 3, 6 and 9): Significant reduction of tumor growth | therapeutic results ([1]; BCNU in absolute ethanol, silicone balloons 0.1-0.2 mm wall): good therapeutic results | Aver. wt of eyes after enucleation, treated eye ([1]; Group I (IA and IB), sesame oil, 10 treated eyes): 5.2 g | growth of the implanted tumor tissue in the anterior chamber ([1]; Group I, BCNU in sesame oil): slowed in all 10 eyes | Aver. wt of eyes after enucleation, treated eye ([1]; Group IA, 3.0 mg in sesame oil): 5.7 g | eyes retaining normal shape and size without distortion for 15 days ([1]; Group IA, three doses of 3.0 mg in sesame oil, 15 days after tumor implantation): six eyes of the seven | Day Tumor Occupied Anterior Chamber, Treated Eye [1, 3]: 13 days and 14 days and 12 days and 18 days | Day Tumor Destroyed Whole Eye, Treated Eye [1, 3]: 18 days and 19 days and 17 days and 16 days and > 18 days and 15 days | Aver. wt of eyes after enucleation, treated eye ([1]; Group IB, 12.0 mg in sesame oil): 4.1 g | eyes retaining normal shape and size without distortion for 19 days ([1]; Group IB, three doses of 12.0 mg in sesame oil, 19 days after tumor implantation): Two eyes of the three | Day Tumor Occupied Anterior Chamber, Treated Eye [1, 4]: 20 days and 17 days and 11 days | Weight of Eyes After Enucleation, Treated Eye [1, 4]: 3.5 g and 5.2 g | Day Tumor Destroyed Whole Eye, Treated Eye [1, 4]: > 20 days and 20 days and 17 days | average weight of the four treated eyes after enucleation ([1]; Group II, BCNU in pure ethanol): 3.1 gm | response of treated eyes ([1]; Group II, BCNU in pure ethanol): Each of the four eyes treated showed good response | tumor tissue growth in the anterior chamber on the fifteenth day ([1]; Group II, BCNU in pure ethanol, day 15): almost completely arrested in three of the four treated eyes | eyes retaining normal shape and size on the twentieth day ([1]; Group II, BCNU in pure ethanol, day 20): all four treated eyes retained their normal shape and size | Aver. wt of eyes after enucleation, treated eye ([1]; Group II, pure ethanol): 3.1 g | Day Tumor Occupied Anterior Chamber, Treated Eye [1, 5]: 18 days and 15 days and 20 days | Weight of Eyes After Enucleation, Treated Eye [1, 5]: 2.8 g and 3.2 g and 3.3 g | Day Tumor Destroyed Whole Eye, Treated Eye [1, 5]: > 20 days and > 29 days | reduction in tumor growth ([1]; absolute ethanol (so in the source), days 3 and 6): greatest reduction in tumor growth | Aver. wt. of eyes after enucleation, treated eye ([1]; all eyes (Groups I and II)): 4.6 g | infiltration and extrascleral extension, histology ([2]; Group I, BCNU in sesame oil): The inner scleral and corneal lamellae were infiltrated with tumor; no extrascleral extension was noted | mitotic index ([2]; Group I, BCNU in sesame oil): remained high | necrosis ([2]; Group I, BCNU in sesame oil): necrosis was prominent | tumor extent, histology ([2]; Group I, BCNU in sesame oil): Tumor growth tended to be limited to the anterior segment, but in some instances replaced the iris and ciliary body | intraocular architecture and invasion of the cornea or sclera ([2]; Group II, BCNU in pure ethanol): Normal intraocular architecture was maintained, with no evidence of invasion of the cornea or sclera | mitotic index ([2]; Group II, BCNU in pure ethanol): 6 to 8 per high power field | necrosis versus control eyes ([2]; Group II, BCNU in pure ethanol): less prominent than in control eyes | reduction of tumor growth, histology ([2]; Group II, BCNU in pure ethanol): most significant reduction of tumor growth | tumor extent, histology ([2]; Group II, BCNU in pure ethanol): Only small foci of tumor, limited to the anterior segment | tumor nodules in iris and ciliary body, histology ([2]; Group II, BCNU in pure ethanol): small nodules of tumor were found in the iris stroma and iris root with occasional involvement of the ciliary body | histological difference between Group IA and Group IB eyes ([2]; total 9.0 mg versus total 36.0 mg BCNU in sesame oil): no observable difference histologically
